Results published in US7250429B2, “Aminomethyl-substituted thiazolobenzimidazole compounds” (Astellas Pharma Inc., priority 2002, dated 2007).
Where a name gives a salt, the structure may show the parent alone.

What was measured:
[1] = tested on: L5/L6 spinal nerves-ligated rat; test: L5/L6 spinal nerves-ligated rat, von Frey hair (VFH) test; type: in vivo, SD rats; conditions: 30 mg/kg oral administration; VFH test 30 minutes after administration
Method: 2) L5/L6 Spinal Nerves-Ligated Rat
The test was carried out by modifying a part of a report (PAIN, 50, 355-363, 1992). Using SD rats, left side hip nerves (L5 and L6) were ligated with a silk thread under pentobarbital anesthesia. The following test was carried out during a period of from on the 7th day to the 14th day after the operation.
Each compound was orally administered, and the von Frey hair (VFH) test was carried out 30 minutes thereafter to calculate the pain threshold value against mechanical nocuous stimulus. The measurement was carried out on the left and right hind legs.
The significant difference test was carried out using the Dunnett method on respective left and right legs between the control group and compound-administered group.

[2] = target: T1, mGluR 1 (Rattus norvegicus, UniProt P23385); test: mGluR 1 binding test with tritium-labeled ligand on rat cerebellum P2 membrane fraction; conditions: about 20 nM [3H]-6-amino-N-cyclohexyl-N,3-dimethylthiazolo[3,2-a]benzimidazole-2-carboxamide
T1 construct: Each rat (Wistar, male, 9 to 12 weeks of age) was decapitated to excise the cerebellum; from tissue; host or cells: rat (Wistar) cerebellum, P2 membrane fraction
Method: (Test Methods) 1. The mGluR 1 Binding Activity
Effect of the compounds of the invention upon mGluR 1 was verified in accordance with the method described in the Patent Reference 3.
(Preparation of Rat Cerebellum P2 Membrane Fraction)
Each rat (Wistar, male, 9 to 12 weeks of age) was decapitated to excise the cerebellum. After weight measurement, this was homogenized in 7 to 10 volumes of 0.32 M sucrose solution. After 15 minutes of centrifugation at 900×g, the supernatant was preserved in a container (in ice). The precipitate was again homogenized in 0.32 M sucrose solution of the same volume of the first time and centrifuged at 900×g for 15 minutes. The supernatant obtained this time was combined with the previously obtained supernatant and centrifuged at 15,000×g for 20 minutes. The precipitate was homogenized in 5 mM Tris-HCl, pH 7.4, and centrifuged at 15,000×g for 15 minutes. This step was repeated again. The precipitate was homogenized in 50 mM Tris-HCl, pH 7.4, and centrifuged at 15,000×g for 15 minutes. The precipitate was homogenized in an appropriate amount of 50 mM Tris-HCl, pH 7.4, subdivided into small portions and then preserved at −80° C.
As the assay buffer, 50 mM Tris-HCl, 2.5 mM CaCl2, pH 7.4, was used. [^3H]-(6-Amino-N-cyclohexyl-N,3-dimethylthiazolo[3,2-a]benzimidazole-2-carboxamide) (specific activity; 81 Ci/mmol; Amersham), a test compound and about 0.1 mg of the rat cerebellum P2 membrane fraction were suspended to a total volume of 100 μl in a 96 well microplate and then incubated at room temperature (about 25° C.) for 45 minutes. Completion of the incubation was carried out by a filtration method using Whatman GF/B filter. Quantity of the radioactivity was measured using a liquid scintillation counter. About 20 nM of [^3H]-6-amino-N-cyclohexyl-N,3-dimethylthiazolo[3,2-a]benzimidazole-2-carboxamide was used in the competitive test, and the specific binding was defined as a portion of the total binding, which was replaced by 10 μM of 6-{[(2-methoxyethyl)amino]methyl}-N-neopentylthiazolo[3,2-a]benzimidazole-2-carboxamide (Patent Reference 3, the compound described in Example 75). Evaluation of the test compound was carried out by calculating the ratio of binding inhibition upon the specific binding.
Determination of protein was carried out using BIO-RAD DC protein assay (BIO-RAD). Bovine serum albumin was used as the standard substance.

[3] = tested on: STZ-loaded mice; test: Streptozotocin (STZ)-induced diabetes model, tail pinch test; type: in vivo, ICR mice; conditions: at 10 mg/kg
Method: • Thomsen C., Mulvihill E. R., Haldeman B., Pickering D. S., Hampson D. R. and Suzdak P. D., A pharmacological characterization of the mGluR 1 alpha subtype of the metabotropic glutamate receptor expressed in a cloned baby hamster kidney cell line., Brain Res., Aug. 13, 1993, 619(1-2), 22-8 2. Inhibitory Effect Upon Neuropathic Pain 1) Streptozotocin (to be Referred to as STZ Hereinafter)—Induced Diabetes Model
The test was carried out by modifying a part of a report (Pharmacol. Biochem. Behav., 39, 541-544, 1991). At a dose of 200 mg/kg, STZ was intraperitoneally administered to each of ICR mice of 4 weeks of age. A preliminary test of a tail pinch test was carried out in the afternoon of the day 2 weeks after the administration, and only animals showing a reaction latency of 3 seconds or less were submitted to the next day's test. Each compound was loaded by 10 mg/kg of oral administration, and the tail pinch test was carried out after 30 minutes of the administration to calculate a difference from the value of latency measured in the preliminary test.
In this connection, normal mice unloaded with STZ show a reaction latency of 6 to 7 seconds in average by this test. STZ-loaded mice having a reaction latency of 3 seconds or less in which distinct reduction in the pain threshold was observed were used in the test of this time. […]

[4] = tested on: Salmonella typhimurium TA 98 and TA 100; test: Reverse mutation test using a bacterium (genetic toxicity); type: cell-based; conditions: pre-incubation method, presence and absence of metabolic activation system (S9Mix)
Method: Gene mutation inducing ability of the compounds of the invention was verified by a reverse mutation test which uses a bacterium.
The test was carried out in accordance with the genetic toxicity test guideline of drugs (Iyakushin No. 1604, Nov. 1, 1999) by a pre-incubation method in the presence and absence of a metabolic activation system. However, Salmonella typhimurium TA 98 and TA 100 alone were used as the test strains.
(Reverse Mutation Test Using a Bacterium)
A 0.5 ml portion of 0.1 M sodium phosphate buffer (pH 7.4), 0.1 ml of an overnight-cultured test strain suspension and 0.1 ml of a solution of a substance to be tested were put into a test tube and shaken (60 reciprocation/min) at 37° C. for 20 minutes, and then 2 ml of soft agar kept at about 45° C. was added thereto and the mixture was spread on a minimal glucose agar plate medium (plate) and cultured at 37° C. for about 48 hours. In the case of the metabolic activation test, the same procedure was carried out by adding the same volume of S9Mix instead of the 0.1 M sodium phosphate buffer. […]
The number of colonies formed on the plate after 48 hours of culturing was counted. […]

T1 sequence (P23385 19-1199): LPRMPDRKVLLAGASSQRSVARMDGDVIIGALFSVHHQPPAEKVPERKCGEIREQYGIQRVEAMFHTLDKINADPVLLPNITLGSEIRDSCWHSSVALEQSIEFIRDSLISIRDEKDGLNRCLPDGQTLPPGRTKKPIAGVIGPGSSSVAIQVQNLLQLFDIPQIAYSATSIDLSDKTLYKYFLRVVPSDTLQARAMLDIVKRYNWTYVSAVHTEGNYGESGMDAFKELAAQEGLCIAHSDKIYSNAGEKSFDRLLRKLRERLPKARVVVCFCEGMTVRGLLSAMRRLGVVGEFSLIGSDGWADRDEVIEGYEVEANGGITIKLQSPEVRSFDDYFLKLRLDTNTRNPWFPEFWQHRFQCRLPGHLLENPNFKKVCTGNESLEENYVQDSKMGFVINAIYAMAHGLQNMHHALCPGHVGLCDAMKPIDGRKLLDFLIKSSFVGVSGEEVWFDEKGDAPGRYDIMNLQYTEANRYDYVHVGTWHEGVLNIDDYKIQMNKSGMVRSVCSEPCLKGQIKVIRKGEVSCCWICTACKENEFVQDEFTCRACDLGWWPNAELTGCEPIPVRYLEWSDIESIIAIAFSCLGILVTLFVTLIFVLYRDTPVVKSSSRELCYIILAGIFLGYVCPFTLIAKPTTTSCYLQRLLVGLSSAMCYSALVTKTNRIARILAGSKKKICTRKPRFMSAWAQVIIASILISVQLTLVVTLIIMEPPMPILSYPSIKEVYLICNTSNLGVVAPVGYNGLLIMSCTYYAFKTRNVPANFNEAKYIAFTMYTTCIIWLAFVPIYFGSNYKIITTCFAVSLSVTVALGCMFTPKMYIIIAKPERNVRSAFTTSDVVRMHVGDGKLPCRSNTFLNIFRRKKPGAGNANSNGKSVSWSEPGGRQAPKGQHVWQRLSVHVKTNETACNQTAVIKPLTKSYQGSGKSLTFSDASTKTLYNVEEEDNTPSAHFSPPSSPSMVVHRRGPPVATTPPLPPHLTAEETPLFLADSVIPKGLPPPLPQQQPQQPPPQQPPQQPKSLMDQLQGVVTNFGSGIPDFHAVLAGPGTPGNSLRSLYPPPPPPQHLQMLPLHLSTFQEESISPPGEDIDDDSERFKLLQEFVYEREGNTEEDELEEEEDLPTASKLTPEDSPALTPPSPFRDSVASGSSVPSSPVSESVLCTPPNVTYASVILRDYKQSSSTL

Row | SMILES | IC50 [2] | other results
1 | CN(CC(C)(C)C)C(=O)c1cn2c(nc3ccc(CNCC4(C)COC4)cc32)s1 [Example 7, N-Methyl-6-({[(3-methyloxetan-3-yl)methyl]amino}methyl)-N-neopentylthiazolo[3,2-a]benzimidazole-2-carboxamide] | 0.009 µM | –
2 | CN(CC(C)(C)C)C(=O)c1cn2c(nc3ccc(CNCC4CCOCC4)cc32)s1 [Example 17, N-Methyl-N-neopentyl-6-({[(tetrahydro-2H-pyran-4-yl)methyl]amino}methyl)thiazolo[3,2-a]benzimidazole-2-carboxamide dihydrochloride] | 0.006 µM | efficacy upon the threshold value reduction in the operated side [1]: showed their efficacy
3 | CN(CC1OCCO1)C(=O)c1cn2c(nc3ccc(CNC4COC4)cc32)s1 [Example 31, N-(1,3-Dioxolan-2-ylmethyl)-N-methyl-6-[(oxetan-3-ylamino)methyl]thiazolo[3,2-a]benzimidazole-2-carboxamide] | 0.043 µM | –
4 | CN(CC1OCCO1)C(=O)c1cn2c(nc3ccc(CNC[C@H]4CCCO4)cc32)s1 [Example 35, N-(1,3-Dioxolan-2-ylmethyl)-N-methyl-6-({[((R)-tetrahydro-2-furyl)methyl]amino}methyl)thiazolo[3,2-a]benzimidazole-2-carboxamide dihydrochloride] | 0.012 µM | –
5 | CN(CC(C)(C)C)C(=O)c1cn2c(nc3ccc(CNCC4OCCO4)cc32)s1 [Example 12, 6-{[(1,3-Dioxolan-2-ylmethyl)amino]methyl}-N-methyl-N-neopentylthiazolo[3,2-a]benzimidazole-2-carboxamide dihydrochloride] | – | oral activity [3]: effective; gene mutation inducing ability [4]: negative
6 | CN(CC1OCCO1)C(=O)c1cn2c(nc3ccc(CNCC4OCCO4)cc32)s1 [Example 37, N-(1,3-Dioxolan-2-ylmethyl)-6-{[(1,3-dioxolan-2-ylmethyl)amino]methyl}-N-methylthiazolo[3,2-a]benzimidazole-2-carboxamide dihydrochloride] | 0.008 µM | –

The remaining compounds from weak to strong by IC50 [2], led by results:

Row | IC50 [2] | SMILES | other results
7 | 0.048 µM | CC(C)(C)CNC(=O)c1cn2c(nc3ccc(CNCC4CCOCC4)cc32)s1 [Example 28, N-Neopentyl-6-({[(tetrahydro-2H-pyran-4-yl)methyl]amino}methyl)thiazolo[3,2-a]benzimidazole-2-carboxamide dihydrochloride] | efficacy upon the threshold value reduction in the operated side [1]: showed their efficacy
8 | 0.037 µM | CN(CC1OCCO1)C(=O)c1cn2c(nc3ccc(CN[C@@H]4CCOC4)cc32)s1 [Example 34, N-(1,3-Dioxolan-2-ylmethyl)-N-methyl-6-{[(R)-(tetrahydro-3-furyl)amino]methyl}thiazolo[3,2-a]benzimidazole-2-carboxamide dihydrochloride] | –
9 | 0.03 µM | CC(C)(C)CNC(=O)c1cn2c(nc3ccc(CN[C@@H]4CCOC4)cc32)s1 [Example 23, (R)-N-Neopentyl-6-{[(tetrahydro-3-furyl)amino]methyl}thiazolo[3,2-a]benzimidazole-2-carboxamide dihydrochloride] | –
10 | 0.026 µM | CN(CC(C)(C)C)C(=O)c1cn2c(nc3ccc(CNC4CCOCC4)cc32)s1 [Example 15, N-Methyl-N-neopentyl-6-{[(tetrahydro-2H-pyran-4-yl)amino]methyl}thiazolo[3,2-a]benzimidazole-2-carboxamide dihydrochloride] | efficacy upon the threshold value reduction in the operated side [1]: showed their efficacy
11 | 0.026 µM | CN(CC1OCCO1)C(=O)c1cn2c(nc3ccc(CNCC4CCOCC4)cc32)s1 [Example 39, N-(1,3-Dioxolan-2-ylmethyl)-N-methyl-6-({[(tetrahydro-2H-pyran-4-yl)methyl]amino}methyl)thiazolo[3,2-a]benzimidazole-2-carboxamide dihydrochloride] | –
12 | 0.011 µM | CC(C)(C)CNC(=O)c1cn2c(nc3ccc(CNC[C@H]4CCCO4)cc32)s1 [Example 24, (R)-N-Neopentyl-6-({[(tetrahydro-2-furyl)methyl]amino}methyl)thiazolo[3,2-a]benzimidazole-2-carboxamide dihydrochloride] | –
13 | 0.008 µM | CC(C)(C)CNC(=O)c1cn2c(nc3ccc(CNCC4OCCO4)cc32)s1 [Example 26, 6-{[(1,3-Dioxolan-2-ylmethyl)amino]methyl}-N-neopentylthiazolo[3,2-a]benzimidazole-2-carboxamide dihydrochloride] | –
14 | 0.003 µM | CN(CC(C)(C)C)C(=O)c1cn2c(nc3ccc(CNC[C@@H]4CCCO4)cc32)s1 [Example 11, N-Methyl-N-neopentyl-6-({[((S)-tetrahydro-2-furfuryl)methyl]amino}methyl)thiazolo[3,2-a]benzimidazole-2-carboxamide Dihydrochloride] | –
15 | 0.002 µM | CN(CC(C)(C)C)C(=O)c1cn2c(nc3ccc(CNC4COC4)cc32)s1 [Example 6, N-Methyl-N-neopentyl-6-[(oxetan-3-ylamino)methyl]thiazolo[3,2-a]benzimidazole-2-carboxamide 1.5 Fumarate] | –
